According to PubChem BioAssay (NCI):
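Five compound concentrations were applied to cells in 96-well plates for 48 hours; endpoints were derived by simple linear interpolation of the resulting dose-response curve. GI50 = concentration required for 50% inhibition of growth. At the TGI there is no net growth.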

Assays:
Experiment in all cases: NCI anticancer screen, dose series, 48 h
HOP-62 NSCLC = test system: HOP-62 NSCLC
NCI-H460 lung = test system: NCI-H460 lung
CAKI-1 renal = test system: CAKI-1 renal
SNB-75 CNS = test system: SNB-75 CNS
OVCAR-5 ovarian = test system: OVCAR-5 ovarian
A549 NSCLC = test system: A549 NSCLC
M14 melanoma = test system: M14 melanoma
DU-145 prostate = test system: DU-145 prostate
NCI/ADR-RES ovarian = test system: NCI/ADR-RES ovarian
MDA-MB-231 breast = test system: MDA-MB-231 breast
HT29 colon = test system: HT29 colon
SK-OV-3 ovarian = test system: SK-OV-3 ovarian
HCT-15 colon = test system: HCT-15 colon
MALME-3M melanoma = test system: MALME-3M melanoma
OVCAR-3 ovarian = test system: OVCAR-3 ovarian
BT-549 breast = test system: BT-549 breast
RXF 393 renal = test system: RXF 393 renal
SN12C renal = test system: SN12C renal
HOP-92 NSCLC = test system: HOP-92 NSCLC
SNB-19 CNS = test system: SNB-19 CNS
A498 renal = test system: A498 renal
NCI-H522 lung = test system: NCI-H522 lung
SF-539 CNS = test system: SF-539 CNS
SF-268 CNS = test system: SF-268 CNS
PC-3 prostate = test system: PC-3 prostate
NCI-H23 lung = test system: NCI-H23 lung
LOX IMVI melanoma = test system: LOX IMVI melanoma
T-47D breast = test system: T-47D breast
UO-31 renal = test system: UO-31 renal

Q: Which results are given for `Cc1ccc2c(NCCCN(C)C)c3c(C)nn(C)c3nc2c1`?
A: GI50 (HOP-62 NSCLC): 6.46 µM; TGI (HOP-62 NSCLC): 60.2 µM; GI50 (NCI-H460 lung): 2.96 µM; TGI (NCI-H460 lung): 10.2 µM; GI50 (CAKI-1 renal): 3.04 µM; TGI (CAKI-1 renal): 38.1 µM; GI50 (SNB-75 CNS): 1.89 µM; TGI (SNB-75 CNS): 10.9 µM; GI50 (OVCAR-5 ovarian): 3.69 µM; TGI (OVCAR-5 ovarian): 22.4 µM; GI50 (A549 NSCLC): 3.45 µM; TGI (A549 NSCLC): 25.1 µM; GI50 (M14 melanoma): 4.34 µM; TGI (M14 melanoma): 17.6 µM; GI50 (DU-145 prostate): 3.88 µM; TGI (DU-145 prostate): 37.7 µM; GI50 (NCI/ADR-RES ovarian): 3.34 µM; TGI (NCI/ADR-RES ovarian): 66.4 µM; GI50 (MDA-MB-231 breast): 3.86 µM; TGI (MDA-MB-231 breast): 19.4 µM; GI50 (HT29 colon): 2.62 µM; TGI (HT29 colon): 8.88 µM; GI50 (SK-OV-3 ovarian): 7.26 µM; TGI (SK-OV-3 ovarian): 68.7 µM; GI50 (HCT-15 colon): 2.59 µM; TGI (HCT-15 colon): 18.3 µM; GI50 (MALME-3M melanoma): 4.97 µM; TGI (MALME-3M melanoma): 22 µM; GI50 (OVCAR-3 ovarian): 4.13 µM; TGI (OVCAR-3 ovarian): 24.8 µM; GI50 (BT-549 breast): 13.7 µM; TGI (BT-549 breast): 31 µM; GI50 (RXF 393 renal): 2.71 µM; TGI (RXF 393 renal): 12.1 µM; GI50 (SN12C renal): 3.52 µM; TGI (SN12C renal): 29.9 µM; GI50 (HOP-92 NSCLC): 1.6 µM; TGI (HOP-92 NSCLC): 5.99 µM; GI50 (SNB-19 CNS): 3.96 µM; TGI (SNB-19 CNS): 39.1 µM; GI50 (A498 renal): 1.8 µM; TGI (A498 renal): 7.86 µM; GI50 (NCI-H522 lung): 2.76 µM; TGI (NCI-H522 lung): 12.7 µM; GI50 (SF-539 CNS): 4.7 µM; TGI (SF-539 CNS): 19.6 µM; GI50 (SF-268 CNS): 4.18 µM; TGI (SF-268 CNS): 23.9 µM; GI50 (PC-3 prostate): 3.59 µM; TGI (PC-3 prostate): 16.3 µM; GI50 (NCI-H23 lung): 5.29 µM; TGI (NCI-H23 lung): 25.3 µM; GI50 (LOX IMVI melanoma): 2.22 µM; TGI (LOX IMVI melanoma): 5.64 µM; GI50 (T-47D breast): 9.5 µM; TGI (T-47D breast): 98.8 µM; GI50 (UO-31 renal): 2.68 µM
